# Assay results taken from ChEMBL document CHEMBL1201862, “PubChem BioAssay data set” (2004).
# Activity calls are given as the source filed them.
# Columns and labels:
# [1] = Trypanosoma cruzi growth suppression in host cells – NIH3T3 host cells, beta-gal luminescence, confirmation (AID 2044); type: functional, cell-based;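 note: intracellular parasites grown in NIH/3T3 mouse fibroblasts as host cells; luminescent beta-galactosidase reporter signal from transgenic T. cruzi replicating inside host cells; inhibitors lower the luminescence signal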
# [2] = NIH3T3 cell viability loss – ATP luminescence, mouse fibroblasts, counter-screen, dose response (AID 2010); type: functional, cell-based;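 note: cells exposed to compound for about 90 hours before reading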
# [3] = biological target: T1, Heat shock factor protein 1 (Mus musculus, UniProt P38532); test: enhancement of HSF1-driven luciferase signal – cell-based, NIH3T3, luminescence, dose retest, confirmation (AID 435004); type: functional;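 note: stress induced by proteasome inhibitor MG132 added 30 min after compound; luciferase reporter driven by HSF1 response element in NIH3T3 cells; actives raise luminescence as potentiators of the MG132 stress response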
# T1 sequence (P38532 whole entry): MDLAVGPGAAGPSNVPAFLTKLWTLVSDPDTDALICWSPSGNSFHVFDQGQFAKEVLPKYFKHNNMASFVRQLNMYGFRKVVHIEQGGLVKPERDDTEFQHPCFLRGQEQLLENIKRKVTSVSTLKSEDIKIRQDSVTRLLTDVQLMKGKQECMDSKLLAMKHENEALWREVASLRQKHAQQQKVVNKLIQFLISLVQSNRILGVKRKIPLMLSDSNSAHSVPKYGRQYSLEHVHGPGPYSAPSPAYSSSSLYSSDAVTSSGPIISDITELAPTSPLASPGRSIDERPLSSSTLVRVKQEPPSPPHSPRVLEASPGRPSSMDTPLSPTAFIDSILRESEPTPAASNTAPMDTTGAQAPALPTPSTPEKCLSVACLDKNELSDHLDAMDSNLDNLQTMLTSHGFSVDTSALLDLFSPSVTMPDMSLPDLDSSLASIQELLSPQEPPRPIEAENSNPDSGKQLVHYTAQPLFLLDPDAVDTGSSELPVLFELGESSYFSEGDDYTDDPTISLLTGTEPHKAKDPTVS
# [4] = biological target: T2, RNA-binding protein pos-1 (Caenorhabditis elegans, UniProt G5EF15); test: disruptors of C. elegans POS-1 RNA interaction – biochemical, fluorescence polarization, dose response (AID 1964);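 note: purified POS-1 fused to maltose binding protein made in E. coli; potency of compounds blocking POS-1 binding to fluorescent RNA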
# T2 sequence (G5EF15 whole entry): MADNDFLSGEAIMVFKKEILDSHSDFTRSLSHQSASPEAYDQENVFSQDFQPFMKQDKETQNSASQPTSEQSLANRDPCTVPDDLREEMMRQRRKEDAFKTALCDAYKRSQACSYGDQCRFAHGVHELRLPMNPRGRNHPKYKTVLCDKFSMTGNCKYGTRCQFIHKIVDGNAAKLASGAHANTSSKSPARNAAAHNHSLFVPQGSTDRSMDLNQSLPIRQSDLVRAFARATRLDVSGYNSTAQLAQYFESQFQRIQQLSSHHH
# [5] = biological target: T3, Zinc finger protein mex-5 (Caenorhabditis elegans, UniProt Q9XUB2); test: potency of MEX-5 RNA-binding blockers – biochemical, C. elegans, fluorescence polarization, dose response (AID 1960)
# T3 sequence (Q9XUB2 whole entry): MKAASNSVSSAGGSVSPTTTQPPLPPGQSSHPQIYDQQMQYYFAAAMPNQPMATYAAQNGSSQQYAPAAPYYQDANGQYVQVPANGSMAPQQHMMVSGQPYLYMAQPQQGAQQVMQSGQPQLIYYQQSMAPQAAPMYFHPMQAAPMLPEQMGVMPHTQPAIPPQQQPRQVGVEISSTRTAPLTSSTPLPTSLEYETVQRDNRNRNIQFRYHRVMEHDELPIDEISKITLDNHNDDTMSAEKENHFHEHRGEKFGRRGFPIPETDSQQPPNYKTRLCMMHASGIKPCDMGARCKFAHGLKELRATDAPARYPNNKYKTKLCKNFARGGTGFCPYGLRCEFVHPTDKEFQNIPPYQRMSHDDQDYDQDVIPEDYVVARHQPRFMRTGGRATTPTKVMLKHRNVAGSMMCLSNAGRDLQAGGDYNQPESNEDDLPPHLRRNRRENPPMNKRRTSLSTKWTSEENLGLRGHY
# Cytochrome P450 2C19 = Cytochrome P450 2C19 (Homo sapiens, UniProt P33261); test: Cytochrome panel assay with activity outcomes. Panel member name: p450-cyp2c19 Compounds with AC50 equal or less than 10 uM are considered active; type: functional
# [6] = biological target: T4, Corticotropin-releasing factor receptor 2/Corticotropin-releasing factor-binding protein (Homo sapiens, UniProt P24387+Q13324); test: activators of CRF receptor 2 with binding protein – uHTS hits, confirmation (AID 602473); type: functional; details: read-out: EC50_Mean
# T4 sequence (Q13324 whole entry): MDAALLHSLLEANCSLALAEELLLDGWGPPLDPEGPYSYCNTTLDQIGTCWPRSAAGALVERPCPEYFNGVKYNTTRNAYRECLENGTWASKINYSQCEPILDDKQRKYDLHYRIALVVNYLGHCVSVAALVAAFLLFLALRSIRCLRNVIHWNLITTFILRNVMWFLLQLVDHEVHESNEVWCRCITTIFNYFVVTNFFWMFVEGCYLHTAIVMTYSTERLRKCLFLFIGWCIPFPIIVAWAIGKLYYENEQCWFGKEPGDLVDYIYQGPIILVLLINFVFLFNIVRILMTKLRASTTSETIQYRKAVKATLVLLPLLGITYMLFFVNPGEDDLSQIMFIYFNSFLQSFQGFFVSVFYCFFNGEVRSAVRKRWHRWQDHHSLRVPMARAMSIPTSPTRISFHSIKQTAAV
# T4 sequence (P24387 whole entry): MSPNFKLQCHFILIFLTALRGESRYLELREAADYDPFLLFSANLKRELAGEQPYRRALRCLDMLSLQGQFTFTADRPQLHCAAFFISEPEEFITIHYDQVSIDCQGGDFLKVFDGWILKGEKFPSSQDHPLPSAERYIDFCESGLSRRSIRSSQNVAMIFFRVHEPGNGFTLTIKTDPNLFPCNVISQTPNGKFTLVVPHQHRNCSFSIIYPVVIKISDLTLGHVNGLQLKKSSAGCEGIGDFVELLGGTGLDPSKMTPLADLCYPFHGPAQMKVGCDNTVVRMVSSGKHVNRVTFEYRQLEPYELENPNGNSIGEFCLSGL
# [7] = tested on: Streptococcus sp. 'group A'; test: Streptococcus pyogenes SK(-)GAS viability under kanamycin – luminescence, BacTiterGlo, confirmation, counter-screen for streptokinase expression inhibitor project, dose response (AID 1900); type: functional, organism-based
# Streptococcus = test: GAS UMAA2166 growth inhibition – luminescence, BacTiterGlo, counter-screen for streptokinase expression inhibitor project, dose response (AID 1915); type: functional, organism-based;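 note: potency for reduction of bacterial viability or growth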
# Cytochrome P450 3A4 = Cytochrome P450 3A4 (Homo sapiens, UniProt P08684);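 note: CYP3A4 tested as one member of a cytochrome P450 panel screen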
# Cytochrome P450 3A4, sequence (P08684 whole entry): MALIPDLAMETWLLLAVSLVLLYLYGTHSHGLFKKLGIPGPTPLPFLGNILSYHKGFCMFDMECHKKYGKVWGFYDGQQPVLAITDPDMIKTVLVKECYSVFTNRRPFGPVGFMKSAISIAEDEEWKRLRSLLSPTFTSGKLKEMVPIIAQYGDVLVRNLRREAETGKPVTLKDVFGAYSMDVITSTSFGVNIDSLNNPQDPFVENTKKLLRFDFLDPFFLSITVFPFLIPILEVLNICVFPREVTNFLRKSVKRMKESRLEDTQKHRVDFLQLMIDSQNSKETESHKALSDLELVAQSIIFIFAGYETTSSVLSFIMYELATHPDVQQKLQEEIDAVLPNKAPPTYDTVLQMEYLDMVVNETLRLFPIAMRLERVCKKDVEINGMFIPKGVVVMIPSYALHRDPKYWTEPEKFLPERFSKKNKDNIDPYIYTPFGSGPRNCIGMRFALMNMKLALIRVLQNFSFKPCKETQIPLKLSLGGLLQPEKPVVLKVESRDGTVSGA
# Cytochrome P450 2C19, sequence (P33261 whole entry): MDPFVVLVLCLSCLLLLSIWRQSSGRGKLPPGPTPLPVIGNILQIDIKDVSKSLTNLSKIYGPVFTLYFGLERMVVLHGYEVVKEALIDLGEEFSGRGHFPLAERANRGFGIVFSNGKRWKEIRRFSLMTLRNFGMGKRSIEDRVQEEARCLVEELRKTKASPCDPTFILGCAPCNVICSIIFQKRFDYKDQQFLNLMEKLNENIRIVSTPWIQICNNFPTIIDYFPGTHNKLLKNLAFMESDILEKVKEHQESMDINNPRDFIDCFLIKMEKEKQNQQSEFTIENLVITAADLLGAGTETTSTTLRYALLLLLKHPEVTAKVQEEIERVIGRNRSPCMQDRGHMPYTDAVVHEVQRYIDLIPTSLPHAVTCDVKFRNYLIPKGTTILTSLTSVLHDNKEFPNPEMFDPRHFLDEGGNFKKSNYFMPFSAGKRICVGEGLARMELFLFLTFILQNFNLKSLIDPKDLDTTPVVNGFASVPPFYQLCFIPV
compound,measurement,setting,value
O=C(CN1CCN(c2cccc(Cl)c2)CC1)Nc1ccc([N+](=O)[O-])cc1C(=O)Nc1ccccc1F,EC50,[1],1.01 µM (active)
same,EC50,[2],> 60 µM (not active)
CC(C)(C)NC(=O)c1ccc2c(c1)N(CC(=O)N1CCCCC1)C(=O)C(C)(C)O2,EC50,[3],> 260 µM (inactive)
O=C(NC1C2CC3CC(C2)CC1C3)C1CC1 (configuration not stated),EC50,[3],> 260 µM (inactive)
CC(C)COc1ccc(/C=C2/Sc3ccccc3C2=O)cc1,EC50,[4],> 300 µM (not active)
same,EC50,[5],> 300 µM (not active)
Cc1cc(C)cc(N2C(=O)NC(=O)/C(=C\c3cc(C)n(C)c3C)C2=O)c1,EC50,[4],6.75 µM (active)
same,EC50,[5],23.5 µM (active)
CC1(OC(=O)CCc2ccccc2)C(=O)C=C2C=C(C3CC3)OC=C2C1=O (configuration not stated),EC50,[4],36.6 µM (active)
same,EC50,[5],30.4 µM (active)
Cn1c(CN2CCCC2)nc2cc(NC(=O)C3CCCCC3)ccc21,AC50,Cytochrome P450 2C19,inconclusive
O=C(NC1CCCC1)C(c1ccncc1)N(Cc1ccccc1)C(=O)c1ccc(-c2ccccc2)[nH]1 (configuration not stated),EC50,[1],0.253 µM (active)
same,EC50,[2],> 60 µM (not active)
Oc1nc2cc3c(cc2cc1C(c1nnnn1C1CCCC1)N1CCCc2ccccc21)OCCO3 (configuration not stated),EC50,[6],> 53 µM (inactive)
Clc1ccc(CCNc2nc3ccccc3n3nnnc23)cc1,EC50,[3],> 260 µM (inactive)
Cc1nc(NCCc2c[nH]cn2)c2oc3ccccc3c2n1,EC50,[1],0.305 µM (active)
same,EC50,[2],> 60 µM (not active)
CCCC(Oc1ccc(Br)cc1)c1nc2c3cc(OC)c(OC)cc3nc(S)n2n1 (configuration not stated),EC50,[7],0.253 µM (active)
same,EC50,Streptococcus,3.62 µM (active)
O=C(/C=C/c1ccc(Cl)cc1Cl)N(Cc1ccccc1)C1CCS(=O)(=O)C1 (configuration not stated),EC50,[3],> 260 µM (inactive)
O=S(=O)([N-]c1nc2ccccc2nc1-[n+]1ccc(CCCc2ccccc2)cc1)c1cccs1,EC50,[4],35.4 µM (active)
same,EC50,[5],34 µM (active)
COC(=O)CCN(C(=O)c1cc([N+](=O)[O-])cc([N+](=O)[O-])c1)c1ccccn1,EC50,[1],1.38 µM (active)
same,EC50,[2],> 30 µM (not active)
CC1=CC(C)(C)N(C(=O)CSc2nnc(N)s2)c2ccccc21,EC50,[6],> 53 µM (inactive)
CCCCc1nnc(NC(=O)C(C)Sc2nc(C)cc(O)n2)s1 (configuration not stated),EC50,[3],> 260 µM (inactive)
Cc1ccccc1NC(=O)C1CCCN(C(=O)NCc2ccccc2)C1 (configuration not stated),EC50,[3],> 260 µM (inactive)
CCOC(=O)C1CCCN(C2CCN(Cc3nc(-c4ccccc4)no3)CC2)C1 (configuration not stated),EC50,[1],0.524 µM (active)
same,EC50,[2],> 60 µM (not active)
CCSC1=N/C(=C\c2ccccc2)C(=O)N1,EC50,[4],> 300 µM (not active)
same,EC50,[5],> 300 µM (not active)
O=C1C2ON(c3ccccc3)C(c3ccncc3)C2C(=O)N1c1ccccc1 (configuration not stated),AC50,Cytochrome P450 2C19; read-out: AC50,0.0708 µM (inconclusive)
Cc1ccc(OCCOCCN2CCCC2)c(Br)c1,EC50,[1],0.96 µM (active)
same,EC50,[2],> 30 µM (not active)
Cc1cnc(CNc2ncncc2-c2ccccc2C#N)cn1,AC50,Cytochrome P450 3A4,12.6 µM (inconclusive)
CN1CCN(NC(=O)/C=C/c2ccc(Br)cc2)CC1,EC50,[3],32.3 µM (active)
Cc1cc(/C=C2\C(=O)NC(=O)N(c3ccc(F)cc3)C2=O)c(C)n1-c1cccc(C(=O)O)c1,EC50,[4],> 300 µM (not active)
same,EC50,[5],> 300 µM (not active)
COc1ccc(S(=O)(=O)N(C)CC(=O)N2CCC(C(N)=O)CC2)cc1Cl,EC50,[3],> 260 µM (inactive)
O=C(CCN1C(=O)c2ccccc2C1=O)C1=NN[C@@H]2C(=O)N(c3ccc(F)cc3)C(=O)[C@H]12,EC50,[3],> 260 µM (inactive)
Cc1cccc(NC(=O)C(C)N2C(=O)C3C4CC(C(Br)C4Br)C3C2=O)c1 (configuration not stated),EC50,[6],9.65 µM (active)
COc1ccc(-c2nn(-c3ccccc3)cc2CNC(=O)c2cccc([N+](=O)[O-])c2)cc1,EC50,[1],1.75 µM (active)
same,EC50,[2],> 60 µM (not active)
Cc1ccsc1C(=O)C1CCCN(Cc2cnc(N(C)C)s2)C1 (configuration not stated),EC50,[1],0.203 µM (active)
same,EC50,[2],> 60 µM (not active)
COc1cc2oc3ccc(C#Cc4ccc(N)cc4)cc3c(=O)c2cc1OC,EC50,[7],1.18 µM (active)
same,EC50,Streptococcus,1.75 µM (active)
Cc1ccnc(SCC(=O)c2ccc(Br)cc2)c1C#N,EC50,[1],0.932 µM (active)
same,EC50,[2],> 30 µM (not active)
N#Cc1cc(NC(=O)c2ccc(F)cc2)c(O)n2c1nc1ccccc12,EC50,[4],21.7 µM (inconclusive)
same,EC50,[5],35 µM (active)
Cc1cc(C)cc(NC(=O)CN(C)S(=O)(=O)c2c[nH]cn2)c1,EC50,[3],> 260 µM (inactive)
COCCN1Cc2cccc(C(=O)Nc3cc(OC)ccc3OC)c2C1=O,EC50,[6],> 53 µM (inactive)
S=C1NC2(CCS1)Oc1ccccc1C1CC(c3ccccc3)=NN12 (configuration not stated),EC50,[4],> 300 µM (not active)
same,EC50,[5],> 300 µM (not active)
CN(C)c1ncc2nc(-c3ccccc3)c(=O)n(C3CC3)c2n1,AC50,Cytochrome P450 2C19; read-out: AC50,39.8 µM (inconclusive)
CCN(Cc1ccccc1)S(=O)(=O)c1cc(C(=O)NCC2CCCCC2)ccc1OC,EC50,[3],> 260 µM (inactive)
COC(=O)c1cc(OC)c(OC)cc1N=C(S)N1CCCC1,EC50,[3],> 260 µM (inactive)
COc1ccc(NC(=O)C2CC(=O)N=C(Nc3cccc(C)c3)N2)cc1 (configuration not stated),EC50,[3],> 260 µM (inactive)
CCCCOC(=O)CCc1c(C)n[nH]c1C,EC50,[3],> 260 µM (inactive)
O=C(NNc1cccc(Cl)n1)Nc1ccccc1Cl,AC50,Cytochrome P450 2C19; read-out: AC50,6.31 µM (inconclusive)
CCCc1nnc(SCC(=O)N2CCCCC2C)n1CC1CCCO1 (configuration not stated),AC50,Cytochrome P450 2C19; read-out: AC50,25.1 µM (inconclusive)
COc1ccc(/C=N/N=C2/CC(C)(C)Cc3nnc(O)cc32)cc1,EC50,[4],41.4 µM (active)
same,EC50,[5],38.1 µM (active)
COc1ccc2cc(/C(C)=N/NC(=S)Nc3cc(S(=O)(=O)N4CCOCC4)ccc3N3CCOCC3)ccc2c1,EC50,[1],0.572 µM (active)
same,EC50,[2],> 60 µM (not active)
COc1ccc(C2C(C#N)=C(/N=C/N3CCN(C)CC3)OC3=C2C(=O)CC(C)(C)C3)cc1 (configuration not stated),EC50,[4],> 300 µM (not active)
same,EC50,[5],> 300 µM (not active)
CN1CCN(C2=Cc3ccccc3Oc3ccc(Cl)cc32)CC1,AC50,Cytochrome P450 3A4,31.6 µM (inconclusive)
CC1(C)S[C@@H]2[C@H](NC(=O)Cc3ccccc3)C(=O)N2[C@H]1C(=O)O [PENICILLIN G],EC50,[7],< 0.06 µM (active)
same,EC50,Streptococcus,< 0.06 µM (active)
CNNCc1ccc(C(=O)NC(C)C)cc1 [PROCARBAZINE],AC50,Cytochrome P450 2C19; read-out: AC50,5.01 µM (inconclusive)
